Measurements taken from PubChem BioAssay (NCI).
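Abbreviation: GI50, concentration required for 50% inhibition of growth. Definition used: TGI = concentration required for complete inhibition of growth.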

How the values were obtained:
Experiment in all cases: growth of human tumour cells (NCI), 384-well format
HCT-116 colon = test system: HCT-116 colon
PC-3 prostate = test system: PC-3 prostate
SF-268 CNS = test system: SF-268 CNS
HT29 colon = test system: HT29 colon
MALME-3M melanoma = test system: MALME-3M melanoma
HS 578T breast = test system: HS 578T breast
OVCAR-8 ovarian = test system: OVCAR-8 ovarian
SNB-19 CNS = test system: SNB-19 CNS
SNB-75 CNS = test system: SNB-75 CNS
SF-539 CNS = test system: SF-539 CNS
RPMI-8226 leukemia = test system: RPMI-8226 leukemia
UACC-257 melanoma = test system: UACC-257 melanoma
SK-MEL-2 melanoma = test system: SK-MEL-2 melanoma

Row | SMILES | GI50 (HCT-116 colon) [µM] | TGI (HCT-116 colon) [µM] | GI50 (PC-3 prostate) [µM] | TGI (PC-3 prostate) [µM] | GI50 (SF-268 CNS) [µM] | TGI (SF-268 CNS) [µM] | GI50 (HT29 colon) [µM] | TGI (HT29 colon) [µM] | GI50 (MALME-3M melanoma) [µM] | TGI (MALME-3M melanoma) [µM] | GI50 (HS 578T breast) [µM] | TGI (HS 578T breast) [µM] | GI50 (OVCAR-8 ovarian) [µM] | TGI (OVCAR-8 ovarian) [µM] | GI50 (SNB-19 CNS) [µM] | TGI (SNB-19 CNS) [µM] | GI50 (SNB-75 CNS) [µM] | TGI (SNB-75 CNS) [µM] | GI50 (SF-539 CNS) [µM] | TGI (SF-539 CNS) [µM] | further results
1 | CC[C@H](Nc1ncnc2nc[nH]c12)c1nc2cccc(F)c2c(=O)n1-c1ccccc1 | 39.9 | > 100 | 6.18 | > 100 | 25.6 | > 100 | 58.2 | > 100 | 20.8 | > 89.1 | 12.5 | 50.3 | 50.3 | > 100 | > 74.4 | > 100 | 0.783 | 6.15 | 33.2 | > 100 | GI50 (RPMI-8226 leukemia): 16.7 µM; TGI (RPMI-8226 leukemia): 36.5 µM; GI50 (UACC-257 melanoma): > 74.9 µM; TGI (UACC-257 melanoma): > 100 µM; GI50 (SK-MEL-2 melanoma): 24 µM; TGI (SK-MEL-2 melanoma): 70.8 µM
2 | CC(C)Nc1cc(-c2c[nH]c(C(=O)N[C@H](CO)c3cccc(Cl)c3)c2)c(Cl)cn1 | 0.231 | 3.11 | 7.81 | 21.3 | 11 | 23 | 0.289 | 13.2 | 0.0197 | 0.076 | 10.5 | 22.3 | 5.72 | 19.5 | 9.24 | 22.5 | 13.4 | 26.2 | 4.36 | 16.2 | GI50 (RPMI-8226 leukemia): 0.366 µM; TGI (RPMI-8226 leukemia): 1.88 µM; GI50 (UACC-257 melanoma): 0.144 µM; TGI (UACC-257 melanoma): 0.498 µM; GI50 (SK-MEL-2 melanoma): 0.186 µM; TGI (SK-MEL-2 melanoma): 0.467 µM
